According to PMC12108457, “Trimethylamine N-Oxide (TMAO) Acts as Inhibitor of Endothelial Nitric Oxide Synthase (eNOS) and Hampers NO Production and Acetylcholine-Mediated Vasorelaxation in Rat Aortas” (Antioxidants, 2025):

Key:
Format in all cases: cell-based
[1] = target: T1, endothelial nitric oxide synthase (eNOS) (Homo sapiens, UniProt P29474); experiment: NO (DAF-FM) and ROS production in HUVECs at […] L-NAME
T1 construct: gene NOS3
T1 sequence (P29474 2-1203): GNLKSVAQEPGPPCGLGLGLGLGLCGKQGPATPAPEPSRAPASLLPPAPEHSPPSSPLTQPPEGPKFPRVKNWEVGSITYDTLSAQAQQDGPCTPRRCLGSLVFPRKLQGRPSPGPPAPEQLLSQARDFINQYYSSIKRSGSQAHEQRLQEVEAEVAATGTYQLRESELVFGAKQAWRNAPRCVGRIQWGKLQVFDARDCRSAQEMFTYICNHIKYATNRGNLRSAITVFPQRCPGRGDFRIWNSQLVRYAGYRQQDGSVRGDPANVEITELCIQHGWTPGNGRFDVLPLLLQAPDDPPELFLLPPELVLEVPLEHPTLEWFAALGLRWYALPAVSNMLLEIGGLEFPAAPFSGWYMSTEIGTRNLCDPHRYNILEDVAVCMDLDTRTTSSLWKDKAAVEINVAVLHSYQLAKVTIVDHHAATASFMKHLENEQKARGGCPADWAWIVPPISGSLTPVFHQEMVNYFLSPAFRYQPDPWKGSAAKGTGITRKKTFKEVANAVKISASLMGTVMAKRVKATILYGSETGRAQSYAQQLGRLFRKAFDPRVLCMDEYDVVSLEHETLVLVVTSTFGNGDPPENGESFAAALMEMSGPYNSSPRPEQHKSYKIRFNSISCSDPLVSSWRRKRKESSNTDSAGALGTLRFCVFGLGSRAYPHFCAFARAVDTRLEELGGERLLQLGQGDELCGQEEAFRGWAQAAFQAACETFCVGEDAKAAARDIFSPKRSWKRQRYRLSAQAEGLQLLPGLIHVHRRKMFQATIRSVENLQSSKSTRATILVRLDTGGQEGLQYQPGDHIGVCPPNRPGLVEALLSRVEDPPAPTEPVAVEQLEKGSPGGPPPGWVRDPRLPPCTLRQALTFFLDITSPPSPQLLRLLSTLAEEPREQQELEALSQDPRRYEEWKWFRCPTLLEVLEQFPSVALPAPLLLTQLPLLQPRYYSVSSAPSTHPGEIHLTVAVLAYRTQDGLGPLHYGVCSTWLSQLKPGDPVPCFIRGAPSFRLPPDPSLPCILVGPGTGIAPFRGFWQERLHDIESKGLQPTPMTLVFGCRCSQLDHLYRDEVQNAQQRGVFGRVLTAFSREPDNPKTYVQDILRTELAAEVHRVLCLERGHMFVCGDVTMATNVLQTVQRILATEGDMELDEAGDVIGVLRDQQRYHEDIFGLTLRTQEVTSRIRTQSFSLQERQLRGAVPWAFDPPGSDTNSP

[2] = target: T1, endothelial nitric oxide synthase (eNOS); experiment: conversion of deuterated L-arginine to L-citrulline in HUVECs by MS; […] L-arginine rescues NO production
[3] = target: T1, endothelial nitric oxide synthase (eNOS); experiment: NO production (DAF-FM) in HUVECs with L-arginine competition; deuterated L-arginine to L-citrulline conversion by MS

SMILES: COC(=O)[C@@H](N)CCCNC(N)=N[N+](=O)[O-] [L-NAME]
- NO (DAF-FM) and ROS production in HUVECs at 1 mM L-NAME [1]: NO production is indeed eNOS-dependent, as proven by the eNOS inhibitor L-NAME, whose presence strongly abolishes NO production

SMILES: N=C(N)NCCC[C@H](N)C(=O)O [L-arginine]
- conversion of deuterated L-arginine to L-citrulline in HUVECs by MS; 20 mM L-arg [2]: we measured the rate of L-arginine’s conversion to L-citrulline by using stable isotope labeling and mass spectrometry

SMILES: C[N+](C)(C)[O-] [Trimethylamine N-oxide]
- EC50 [3]: 2500 ± 300 nM
